Measurements taken from patent publication US6737383B1, “Herbicidal oxadiazolidines” (priority 1999, dated 2004).

Experiments:
sugar beet = test: Test B pre/postemergence sugar beet; type: in vivo, Beta vulgaris; details: for Sugarbeets plant response rating: scale of 0 to 10 where 0 is no effect and 10 is complete control
Method in brief: (§1)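 Test chemicals in a non-phytotoxic solvent mixture with surfactant were sprayed preemergence onto planted seeds and postemergence onto plants 2 to 18 cm tall (1- to 4-leaf stage). After twelve to sixteen days in a greenhouse, injury was visually rated against untreated controls from 0 (no effect) to 10 (complete control).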

surinam grass = test: Test B pre/postemergence surinam grass; type: in vivo, Brachiaria decumbens; details: for B. signalgrass plant response rating: scale of 0 to 10 where 0 is no effect and 10 is complete control
Method in brief: as §1

velvetleaf = test: Test B pre/postemergence velvetleaf; type: in vivo, Abutilon theophrasti; details: for Velvetleaf plant response rating: scale of 0 to 10 where 0 is no effect and 10 is complete control
Method in brief: as §1

corn = test: Test B pre/postemergence corn; type: in vivo, Zea mays; details: for Corn plant response rating: scale of 0 to 10 where 0 is no effect and 10 is complete control
Method in brief: as §1

purple nutsedge = test: Test B pre/postemergence purple nutsedge; type: in vivo, Cyperus rotundus; details: for Nutsedge plant response rating: scale of 0 to 10 where 0 is no effect and 10 is complete control
Method in brief: as §1

bamyardgrass = test: Test B flood test barnyardgrass; type: in vivo, Echinochloa crus-galli
Method in brief: (§2)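 Read-out is a visual response score from 0 (no effect) to 10 (complete control), assigned by comparison with untreated controls. Treatment was applied at the 2-leaf stage, and plants stayed in the greenhouse for twelve to sixteen days before scoring.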

pigweed = test: Test B pre/postemergence pigweed; type: in vivo, Amaranthus retroflexus; details: for Redroot pigweed plant response rating: scale of 0 to 10 where 0 is no effect and 10 is complete control
Method in brief: as §1

bedstraw = test: Test B pre/postemergence bedstraw; type: in vivo, Galium aparine; details: Postemergence
Method in brief: as §1

smallflower flatsedge = test: Test B flood test smallflower flatsedge; type: in vivo, Cyperus difformis
Method in brief: as §2

morningglory = test: Test B pre/postemergence morningglory; type: in vivo, Ipomoea hederacea; details: for Morningglory plant response rating: scale of 0 to 10 where 0 is no effect and 10 is complete control
Method in brief: as §1

rice = test: Test B flood test rice; type: in vivo, Oryza sativa
Method in brief: as §2

soybean = test: Test B pre/postemergence soybean; type: in vivo, Glycine max; details: for Soybean plant response rating: scale of 0 to 10 where 0 is no effect and 10 is complete control
Method in brief: as §1

duck salad = test: Test B flood test duck salad; type: in vivo, Heteranthera limosa
Method in brief: as §2

giant foxtail = test: Test B pre/postemergence giant foxtail; type: in vivo, Setaria faberii; details: for Giant foxtail plant response rating: scale of 0 to 10 where 0 is no effect and 10 is complete control
Method in brief: as §1

rape = test: Test B pre/postemergence rape; type: in vivo, Brassica napus; details: for Rape plant response rating: scale of 0 to 10 where 0 is no effect and 10 is complete control
Method in brief: as §1

blackgrass = test: Test B pre/postemergence blackgrass; type: in vivo, Alopecurus myosuroides; details: for Blackgrass plant response rating: scale of 0 to 10 where 0 is no effect and 10 is complete control
Method in brief: as §1

[1] = Postemergence, Rate 125 g/ha, scale 0 to 10, 0 is no effect, 10 is complete control
[2] = Postemergence, Rate 250 g/ha, scale 0 to 10, 0 is no effect, 10 is complete control
[3] = Preemergence, Rate 62 g/ha, scale 0 to 10 (0 no effect, 10 complete control)
[4] = Rate 500 g/ha, Postemergence, scale 0 to 10, 0 no effect, 10 complete control
[5] = Postemergence (flood test), Rate 125 g/ha, scale 0 to 10, 0 is no effect, 10 is complete control
[6] = Rate 62 g/ha, Postemergence (flood test species), scale of 0 to 10 where 0 is no effect and 10 is complete control
[7] = Rate 500 g/ha, listed under Postemergence (flood test species), scale 0 to 10, 0 no effect, 10 complete control
[8] = flood test species, listed under Postemergence, Rate 250 g/ha, scale 0 to 10, 0 is no effect, 10 is complete control

SMILES: CC(C)N(C(=O)n1oc(=O)n(C2(C)CC2)c1=O)c1ccccc1 [Compound 360]
- Plant response rating, Sugarbeets (sugar beet; [1]): 0
- Plant response rating, Sugarbeets (sugar beet; [2]): 2
- Plant response rating, Sugarbeets (sugar beet; [3]): 2
- Sugarbeets plant response rating (0 to 10 scale) (sugar beet; Preemergence, Rate 125 g/ha): 6
- Sugarbeets plant response rating (sugar beet; Preemergence, Rate 250 g/ha): 6
- Sugarbeets plant response rating (sugar beet; Preemergence, Rate 500 g/ha): 7
- Sugarbeets plant response rating (sugar beet; Rate 62 g/ha, Postemergence): 0
- Plant response rating, Sugarbeets (sugar beet; [4]): 7
- Plant response rating, B. signalgrass (surinam grass; [1]): 0
- Plant response rating, B. signalgrass (surinam grass; [2]): 5
- Plant response rating, B. signalgrass (surinam grass; [3]): 5
- B. signalgrass plant response rating (0 to 10 scale, 0 is no effect, 10 is complete control) (surinam grass; Preemergence, Rate 125 g/ha): 6
- B. signalgrass plant response rating (surinam grass; Preemergence, Rate 250 g/ha): 7
- B. signalgrass plant response rating (surinam grass; Preemergence, Rate 500 g/ha): 7
- B. signalgrass plant response rating (surinam grass; Rate 62 g/ha, Postemergence): 0
- Plant response rating, B. signalgrass (surinam grass; [4]): 7
- Plant response rating, Velvetleaf (velvetleaf; [1]): 0
- Plant response rating, Velvetleaf (velvetleaf; [2]): 0
- Plant response rating, Velvetleaf (velvetleaf; [3]): 3
- Velvetleaf plant response rating (0 to 10 scale) (velvetleaf; Preemergence, Rate 125 g/ha): 6
- Velvetleaf plant response rating (velvetleaf; Preemergence, Rate 250 g/ha): 7
- Velvetleaf plant response rating (velvetleaf; Preemergence, Rate 500 g/ha): 7
- Velvetleaf plant response rating (velvetleaf; Rate 62 g/ha, Postemergence): 0
- Plant response rating, Velvetleaf (velvetleaf; [4]): 4
- Plant response rating, Corn (corn; [1]): 2
- Plant response rating, Corn (corn; [2]): 6
- Plant response rating, Corn (corn; [3]): 0
- Corn plant response rating (0 to 10 scale) (corn; Preemergence, Rate 125 g/ha): 3
- Corn plant response rating (corn; Preemergence, Rate 250 g/ha): 4
- Corn plant response rating (corn; Preemergence, Rate 500 g/ha): 9
- Corn plant response rating (corn; Rate 62 g/ha, Postemergence): 2
- Plant response rating, Corn (corn; [4]): 7
- Plant response rating, Nutsedge (purple nutsedge; [1]): 0
- Plant response rating, Nutsedge (purple nutsedge; [2]): 2
- Plant response rating, Nutsedge (purple nutsedge; [3]): 0
- Nutsedge plant response rating (0 to 10 scale) (purple nutsedge; Preemergence, Rate 125 g/ha): 0
- Nutsedge plant response rating (purple nutsedge; Preemergence, Rate 250 g/ha): 0
- Nutsedge plant response rating (purple nutsedge; Preemergence, Rate 500 g/ha): 7
- Nutsedge plant response rating (purple nutsedge; Rate 62 g/ha, Postemergence): 0
- Plant response rating, Nutsedge (purple nutsedge; [4]): 4
- Plant response rating, Barnyardgrass (bamyardgrass; [5]): 2
- Barnyardgrass plant response rating (bamyardgrass; [6]): 2
- Plant response rating, Barnyardgrass (bamyardgrass; [7]): 7
- Plant response rating, Barnyardgrass (bamyardgrass; [8]): 6
- Plant response rating, Redroot pigweed (pigweed; [1]): 0
- Plant response rating, Redroot pigweed (pigweed; [2]): 3
- Plant response rating, Redroot pigweed (pigweed; [3]): 5
- Redroot pigweed plant response rating (0 to 10 scale) (pigweed; Preemergence, Rate 125 g/ha): 5
- Redroot pigweed plant response rating (pigweed; Preemergence, Rate 250 g/ha): 10
- Redroot pigweed plant response rating (pigweed; Preemergence, Rate 500 g/ha): 10
- Redroot pigweed plant response rating (pigweed; Rate 62 g/ha, Postemergence): 0
- Plant response rating, Redroot pigweed (pigweed; [4]): 6
- Plant response rating, Bedstraw (bedstraw; Rate 125 g/ha, scale 0 to 10, 0 is no effect, 10 is complete control): 0
- Plant response rating, Bedstraw (bedstraw; Rate 250 g/ha, scale 0 to 10, 0 is no effect, 10 is complete control): 2
- Bedstraw plant response rating (bedstraw; Rate 62 g/ha, scale of 0 to 10 where 0 is no effect and 10 is complete control): 0
- Plant response rating, Bedstraw (bedstraw; Rate 500 g/ha, scale 0 to 10, 0 no effect, 10 complete control): 4
- Plant response rating, S. Flatsedge (smallflower flatsedge; [5]): 4
- S. Flatsedge plant response rating (smallflower flatsedge; [6]): 2
- Plant response rating, S. Flatsedge (smallflower flatsedge; [7]): 8
- Plant response rating, S. Flatsedge (smallflower flatsedge; [8]): 4
- Plant response rating, Morningglory (morningglory; [1]): 4
- Plant response rating, Morningglory (morningglory; [2]): 4
- Plant response rating, Morningglory (morningglory; [3]): 0
- Morningglory plant response rating (0 to 10 scale) (morningglory; Preemergence, Rate 125 g/ha): 5
- Morningglory plant response rating (morningglory; Preemergence, Rate 250 g/ha): 7
- Morningglory plant response rating (morningglory; Preemergence, Rate 500 g/ha): 10
- Morningglory plant response rating (morningglory; Rate 62 g/ha, Postemergence): 4
- Plant response rating, Morningglory (morningglory; [4]): 5
- Plant response rating, Rice (rice; [5]): 0
- Rice plant response rating (rice; [6]): 0
- Plant response rating, Rice (rice; [7]): 3
- Plant response rating, Rice (rice; [8]): 3
- Plant response rating, Soybean (soybean; [1]): 2
- Plant response rating, Soybean (soybean; [2]): 2
- Plant response rating, Soybean (soybean; [3]): 0
- Soybean plant response rating (0 to 10 scale) (soybean; Preemergence, Rate 125 g/ha): 0
- Soybean plant response rating (soybean; Preemergence, Rate 250 g/ha): 0
- Soybean plant response rating (soybean; Preemergence, Rate 500 g/ha): 5
- Soybean plant response rating (soybean; Rate 62 g/ha, Postemergence): 1
- Plant response rating, Soybean (soybean; [4]): 3
- Plant response rating, Ducksalad (duck salad; [5]): 0
- Ducksalad plant response rating (duck salad; [6]): 0
- Plant response rating, Ducksalad (duck salad; [7]): 0
- Plant response rating, Ducksalad (duck salad; [8]): 0
- Plant response rating, Giant foxtail (giant foxtail; [1]): 8
- Plant response rating, Giant foxtail (giant foxtail; [2]): 8
- Plant response rating, Giant foxtail (giant foxtail; [3]): 10
- Giant foxtail plant response rating (0 to 10 scale) (giant foxtail; Preemergence, Rate 125 g/ha): 10
- Giant foxtail plant response rating (giant foxtail; Preemergence, Rate 250 g/ha): 10
- Giant foxtail plant response rating (giant foxtail; Preemergence, Rate 500 g/ha): 10
- Giant foxtail plant response rating (giant foxtail; Rate 62 g/ha, Postemergence): 8
- Plant response rating, Giant foxtail (giant foxtail; [4]): 8
- Plant response rating, Rape (rape; [1]): 0
- Plant response rating, Rape (rape; [2]): 0
- Plant response rating, Rape (rape; [3]): 0
- Rape plant response rating (0 to 10 scale) (rape; Preemergence, Rate 125 g/ha): 0
- Rape plant response rating (rape; Preemergence, Rate 250 g/ha): 0
- Rape plant response rating (rape; Preemergence, Rate 500 g/ha): 0
- Rape plant response rating (rape; Rate 62 g/ha, Postemergence): 0
- Plant response rating, Rape (rape; [4]): 0
- Plant response rating, Blackgrass (blackgrass; [1]): 5
- Plant response rating, Blackgrass (blackgrass; [2]): 6
- Plant response rating, Blackgrass (blackgrass; [3]): 9
- Blackgrass plant response rating (0 to 10 scale) (blackgrass; Preemergence, Rate 125 g/ha): 9
- Blackgrass plant response rating (blackgrass; Preemergence, Rate 250 g/ha): 9
- Blackgrass plant response rating (blackgrass; Preemergence, Rate 500 g/ha): 10
- Blackgrass plant response rating (blackgrass; Rate 62 g/ha, Postemergence): 5
- Plant response rating, Blackgrass (blackgrass; [4]): 7
